In patent US20250115620A1, “BRIDGED TRICYCLIC CARBAMOYLPYRIDONE COMPOUNDS AND USES THEREOF” (Gilead Sciences, Inc., priority 2022, published 2025):
Where two headings read alike, the source gives them in different places.

What was measured:
in vitro = settings: human; for CC50 at 5 days: uninfected MT-4 cells
HIV-1 (IIIB) = assay: microbe, parasite or virus in culture; type: cell-based; settings: Human immunodeficiency virus 1, IIIB, MT4, 120 h, read-out: MT4 EC50
Protocol: Compounds were tested in a high-throughput 384-well assay format for their ability to inhibit the replication of HIV-1 (IIIB) in MT-4 cells. Compounds were serially diluted (1:3) in DMSO on 384-well polypropylene plates and further diluted 200-fold into complete RPMI media (10% FBS, 1% P/S) using the Biotek Micro Flow and Labcyte ECHO acoustic dispenser. Each plate contained up to 8 test compounds, with negative (No Drug Control) and 5 μM AZT positive controls. MT-4 cells were pre-infected with 10 μL of either RPMI (mock-infected) or a fresh 1:250 dilution of HIV-1 IIIB concentrated virus stock. Infected and uninfected MT-4 cells were further diluted in complete RPMI media and added to each plate using a Micro Flow dispenser. After 5 days incubation in a humidified and temperature controlled incubator (37° C.), Cell Titer Glo (Promega) was added to the assay plates and chemiluminescence read using an Envision plate-reader.

pLAI reporter virus = assay: microbe, parasite or virus in culture; type: cell-based, HIV; settings: Human immunodeficiency virus 1, MT4, 72 h
[1] = HIV-1 (IIIB) in MT-4 cells, 5 days incubation, Cell Titer Glo

COC1=NO[C@@]2(CC[C@H](C)N3C[C@H]2n2cc(C(=O)NCc4c(F)cc(F)cc4F)c(=O)c(O)c2C3=O)[C@@H]1F [Example 86, (3′S,4S,5R,7′R)-4-fluoro-12′-hydroxy-3-methoxy-3′-methyl-1′,11′-dioxo-N-(2,4,6-trifluorobenzyl)-1′,4′,5′,11′-tetrahydro-3′H,4H,7′H-spiro[isoxazole-5,6′-[2,7]methanopyrido[1,2-a][1,4]diazonine]-10′-carboxamide]
CC50 at 5 days (in vitro): 11900 nM | EC50 (HIV-1 (IIIB); [1]): 1.2 nM | EC50 (pLAI reporter virus; read-out: RLUC 50% HS EC50): 68.4 nM | EC50 (pLAI reporter virus; read-out: RLUC CCM EC50): 0.3 nM

C[C@H]1CC[C@]2(CC(CF)=NO2)[C@H]2CN1C(=O)c1c(O)c(=O)c(C(=O)NCc3c(F)cc(F)cc3F)cn12 [Example 19, (3′S,5S,7′R)-3-(fluoromethyl)-12′-hydroxy-3′-methyl-1′,11′-dioxo-N-(2,4,6-trifluorobenzyl)-1′,4′,5′,11′-tetrahydro-3′H,4H,7′H-spiro[isoxazole-5,6′-[2,7]methanopyrido[1,2-a][1,4]diazonine]-10′-carboxamide]
CC50 at 5 days (in vitro): 22900 nM | EC50 (HIV-1 (IIIB)): 1 nM | EC50 (pLAI reporter virus; read-out: RLUC 50% HS EC50): 163 nM | EC50 (pLAI reporter virus; read-out: RLUC CCM EC50): 0.2 nM

C[C@H]1CC[C@]2(CC(C(F)F)=NO2)[C@H]2CN1C(=O)c1c(O)c(=O)c(C(=O)NCc3c(F)cc(F)cc3F)cn12 [Example 20, (3′S,5S,7′R)-3-(difluoromethyl)-12′-hydroxy-3′-methyl-1′,11′-dioxo-N-(2,4,6-trifluorobenzyl)-1′,4′,5′,11′-tetrahydro-3′H,4H,7′H-spiro[isoxazole-5,6′-[2,7]methanopyrido[1,2-a][1,4]diazonine]-10′-carboxamide]
CC50 at 5 days (in vitro): 12400 nM | EC50 (HIV-1 (IIIB); [1]): 1.2 nM | EC50 (pLAI reporter virus; read-out: RLUC 50% HS EC50): 168 nM | EC50 (pLAI reporter virus; read-out: RLUC CCM EC50): 0.3 nM

C[C@H]1CC[C@]2(CC(Cc3ccccc3)=NO2)[C@H]2CN1C(=O)c1c(O)c(=O)c(C(=O)NCc3ccc(F)cc3F)cn12 [Example 12, (3′S,5S,7′R)-3-benzyl-N-(2,4-difluorobenzyl)-12′-hydroxy-3′-methyl-1′,11′-dioxo-1′,4′,5′,11′-tetrahydro-3′H,4H,7′H-spiro[isoxazole-5,6′-[2,7]methanopyrido[1,2-a][1,4]diazonine]-10′-carboxamide]
CC50 (in vitro): 23500 nM | EC50 (HIV-1 (IIIB)): 1.7 nM | EC50 (pLAI reporter virus; read-out: RLUC 50% HS EC50): 35.6 nM | EC50 (pLAI reporter virus; read-out: RLUC CCM EC50): 1.1 nM

CC1=NCC2(CC[C@H](C)N3C[C@H]2n2cc(C(=O)NCc4ccc(F)cc4F)c(=O)c(O)c2C3=O)O1 (stereo partly drawn) [Example 56, (3′S,7′R)—N-(2,4-difluorobenzyl)-12′-hydroxy-2,3′-dimethyl-1′,11′-dioxo-1′,4′,5′,11′-tetrahydro-3′H,4H,7′H-spiro[oxazole-5,6′-[2,7]methanopyrido[1,2-a][1,4]diazonine]-10′-carboxamide]
CC50 at 5 days (in vitro): ≥ 50000 nM | EC50 (HIV-1 (IIIB); [1]): 6.2 nM | EC50 (pLAI reporter virus; read-out: RLUC 50% HS EC50): 5 nM | EC50 (pLAI reporter virus; read-out: RLUC CCM EC50): 3.4 nM

C[C@H]1CC[C@]2(CC(=O)N(Cc3ccc(F)cc3F)O2)[C@H]2CN1C(=O)c1c(O)c(=O)c(C(=O)NCc3c(F)cc(F)cc3F)cn12 [Example 110, (3′S,5S,7′R)-2-(2,4-difluorobenzyl)-12′-hydroxy-3′-methyl-1′,3,11′-trioxo-N-(2,4,6-trifluorobenzyl)-1′,4′,5′,11′-tetrahydro-3′H,7′H-spiro[isoxazolidine-5,6′-[2,7]methanopyrido[1,2-a][1,4]diazonine]-10′-carboxamide]
CC50 at 5 days (in vitro): 12000 nM | EC50 (HIV-1 (IIIB); [1]): 1.2 nM | EC50 (pLAI reporter virus; read-out: RLUC 50% HS EC50): 2.9 nM | EC50 (pLAI reporter virus; read-out: RLUC CCM EC50): 0.3 nM

C[C@H]1CC[C@@]2(COC(C)(C)O2)[C@H]2CN1C(=O)c1c(O)c(=O)c(C(=O)NCc3c(F)cc(F)cc3F)cn12 [Example 138, (3′S,4S,7′R)-12′-hydroxy-2,2,3′-trimethyl-1′,11′-dioxo-N-(2,4,6-trifluorobenzyl)-1′,4′,5′,11′-tetrahydro-3′H,7′H-spiro[[1,3]dioxolane-4,6′-[2,7]methanopyrido[1,2-a][1,4]diazonine]-10′-carboxamide]
CC50 at 5 days (in vitro): 23200 nM | EC50 (HIV-1 (IIIB); [1]): 2 nM | EC50 (pLAI reporter virus; read-out: RLUC 50% HS EC50): 13.1 nM | EC50 (pLAI reporter virus; read-out: RLUC CCM EC50): 0.5 nM

C[C@H]1CO[C@]2(CC[C@H](C)N3C[C@H]2n2cc(C(=O)NCc4c(F)cc(F)cc4F)c(=O)c(O)c2C3=O)O1 [Example 127, (2R,3′S,4S,7′R)-12′-hydroxy-3′,4-dimethyl-1′,11′-dioxo-N-(2,4,6-trifluorobenzyl)-1′,4′,5′,11′-tetrahydro-3′H,7′H-spiro[[1,3]dioxolane-2,6′-[2,7]methanopyrido[1,2-a][1,4]diazonine]-10′-carboxamide]
CC50 at 5 days (in vitro): 49900 nM | EC50 (HIV-1 (IIIB); [1]): 1.2 nM | EC50 (pLAI reporter virus; read-out: RLUC 50% HS EC50): 13.3 nM | EC50 (pLAI reporter virus; read-out: RLUC CCM EC50): 0.1 nM

COC[C@H]1CO[C@]2(CC[C@H](C)N3C[C@H]2n2cc(C(=O)NCc4c(F)cc(F)cc4F)c(=O)c(O)c2C3=O)O1 [Example 167, (2R,3′S,4S,7′R)-12′-hydroxy-4-(methoxymethyl)-3′-methyl-1′,11′-dioxo-N-(2,4,6-trifluorobenzyl)-1′,4′,5′,11′-tetrahydro-3′H,7′H-spiro[[1,3]dioxolane-2,6′-[2,7]methanopyrido[1,2-a][1,4]diazonine]-10′-carboxamide]
CC50 at 5 days (in vitro): 35800 nM | EC50 (HIV-1 (IIIB); [1]): 1.7 nM | EC50 (pLAI reporter virus; read-out: RLUC 50% HS EC50): 8.7 nM | EC50 (pLAI reporter virus; read-out: RLUC CCM EC50): 0.6 nM

CC1=NO[C@@]2(CC[C@H](C)N3C[C@H]2n2cc(C(=O)NCc4ccc(F)cc4F)c(=O)c(O)c2C3=O)[C@@H]1O [Example 30, (3′S,4R,5R,7′R)—N-(2,4-difluorobenzyl)-4,12′-dihydroxy-3,3′-dimethyl-1′,11′-dioxo-1′,4′,5′,11′-tetrahydro-3′H,4H,7′H-spiro[isoxazole-5,6′-[2,7]methanopyrido[1,2-a][1,4]diazonine]-10′-carboxamide]
CC50 at 5 days (in vitro): 40000 nM | EC50 (HIV-1 (IIIB); [1]): 1.2 nM | EC50 (pLAI reporter virus; read-out: RLUC 50% HS EC50): 79.4 nM | EC50 (pLAI reporter virus; read-out: RLUC CCM EC50): 0.5 nM

C[C@H]1CC[C@]2(Cc3ccccc3O2)[C@H]2CN1C(=O)c1c(O)c(=O)c(C(=O)NCc3c(F)cc(F)cc3F)cn12 [Example 143, (2S,3′S,7′R)-12′-hydroxy-3′-methyl-1′,11′-dioxo-N-(2,4,6-trifluorobenzyl)-1′,4′,5′,11′-tetrahydro-3H,3′H,7′H-spiro[benzofuran-2,6′-[2,7]methanopyrido[1,2-a][1,4]diazonine]-10′-carboxamide]
CC50 at 5 days (in vitro): 24400 nM | EC50 (HIV-1 (IIIB); [1]): 1.4 nM | EC50 (pLAI reporter virus; read-out: RLUC 50% HS EC50): 78.4 nM | EC50 (pLAI reporter virus; read-out: RLUC CCM EC50): 0.1 nM

CC1=NO[C@@]2(CC[C@@H](C)N3C[C@H]2n2cc(C(=O)NCc4c(F)cc(F)cc4F)c(=O)c(O)c2C3=O)C1 [Example 98, (3′R,5S,7′R)-12′-hydroxy-3,3′-dimethyl-1′,11′-dioxo-N-(2,4,6-trifluorobenzyl)-1′,4′,5′,11′-tetrahydro-3′H,4H,7′H-spiro[isoxazole-5,6′-[2,7]methanopyrido[1,2-a][1,4]diazonine]-10′-carboxamide]
CC50 at 5 days (in vitro): 12700 nM | EC50 (HIV-1 (IIIB); [1]): 3 nM | EC50 (pLAI reporter virus; read-out: RLUC 50% HS EC50): 7.4 nM | EC50 (pLAI reporter virus; read-out: RLUC CCM EC50): 0.5 nM

C[C@H]1CC[C@]2(CC(=O)N(Cc3cccc4ccccc34)O2)[C@H]2CN1C(=O)c1c(O)c(=O)c(C(=O)NCc3c(F)cc(F)cc3F)cn12 [Example 106, (3′S,5S,7′R)-12′-hydroxy-3′-methyl-2-(naphthalen-1-ylmethyl)-1′,3,11′-trioxo-N-(2,4,6-trifluorobenzyl)-1′,4′,5′,11′-tetrahydro-3′H,7′H-spiro[isoxazolidine-5,6′-[2,7]methanopyrido[1,2-a][1,4]diazonine]-10′-carboxamide]
CC50 at 5 days (in vitro): ≥ 50000 nM | EC50 (HIV-1 (IIIB); [1]): 0.9 nM | EC50 (pLAI reporter virus; read-out: RLUC 50% HS EC50): 64.2 nM | EC50 (pLAI reporter virus; read-out: RLUC CCM EC50): 0.2 nM

CC1=NO[C@]2(CC[C@H](C)N3C[C@H]2n2cc(C(=O)NCc4ccc(F)cc4F)c(=O)c(O)c2C3=O)C1=O [Example 25, (3′S,5S,7′R)—N-(2,4-difluorobenzyl)-12′-hydroxy-3,3′-dimethyl-1′,4,11′-trioxo-1′,4′,5′,11′-tetrahydro-3′H,4H,7′H-spiro[isoxazole-5,6′-[2,7]methanopyrido[1,2-a][1,4]diazonine]-10′-carboxamide]
CC50 at 5 days (in vitro): ≥ 50000 nM | EC50 (HIV-1 (IIIB); [1]): ≥ 100 nM | EC50 (pLAI reporter virus; read-out: RLUC 50% HS EC50): 58.1 nM | EC50 (pLAI reporter virus; read-out: RLUC CCM EC50): 34 nM

C[C@H]1CC[C@]2(CCCN2)[C@H]2CN1C(=O)c1c(O)c(=O)c(C(=O)NCc3c(F)cc(F)cc3F)cn12 [Example 122, (2R,3′S,7′R)-12′-hydroxy-3′-methyl-1′,11′-dioxo-N-(2,4,6-trifluorobenzyl)-1′,4′,5′,11′-tetrahydro-3′H,7′H-spiro[pyrrolidine-2,6′-[2,7]methanopyrido[1,2-a][1,4]diazonine]-10′-carboxamide]
CC50 at 5 days (in vitro): 38000 nM | EC50 (HIV-1 (IIIB)): 6.4 nM | EC50 (pLAI reporter virus; read-out: RLUC 50% HS EC50): 7.6 nM | EC50 (pLAI reporter virus; read-out: RLUC CCM EC50): 0.9 nM

C[C@H]1CC[C@]2(CC(=O)N(CCc3ccccc3)O2)[C@H]2CN1C(=O)c1c(O)c(=O)c(C(=O)NCc3c(F)cc(F)cc3F)cn12 [Example 105, (3′S,5S,7′R)-12′-hydroxy-3′-methyl-1′,3,11′-trioxo-2-phenethyl-N-(2,4,6-trifluorobenzyl)-1′,4′,5′,11′-tetrahydro-3′H,7′H-spiro[isoxazolidine-5,6′-[2,7]methanopyrido[1,2-a][1,4]diazonine]-10′-carboxamide]
CC50 at 5 days (in vitro): ≥ 50000 nM | EC50 (HIV-1 (IIIB); [1]): 1.2 nM | EC50 (pLAI reporter virus; read-out: RLUC 50% HS EC50): 15.5 nM | EC50 (pLAI reporter virus; read-out: RLUC CCM EC50): 0.3 nM

C[C@H]1CC[C@]2(CC(=O)N(Cc3nc4ccccc4s3)O2)[C@H]2CN1C(=O)c1c(O)c(=O)c(C(=O)NCc3c(F)cc(F)cc3F)cn12 [Example 161, (3′S,5S,7′R)-2-(benzo[d]thiazol-2-ylmethyl)-12′-hydroxy-3′-methyl-1′,3,11′-trioxo-N-(2,4,6-trifluorobenzyl)-1′,4′,5′,11′-tetrahydro-3′H,7′H-spiro[isoxazolidine-5,6′-[2,7]methanopyrido[1,2-a][1,4]diazonine]-10′-carboxamide]
CC50 at 5 days (in vitro): ≥ 50000 nM | EC50 (HIV-1 (IIIB); [1]): 1.4 nM | EC50 (pLAI reporter virus; read-out: RLUC 50% HS EC50): 0.9 nM | EC50 (pLAI reporter virus; read-out: RLUC CCM EC50): 0.4 nM
